The values below come from patent publication US20260103471A1, “CYCLIC UREA THIAZOLYL COMPOUNDS FOR TREATMENT OF HSV” (Assembly Biosciences, Inc., priority 2022, published 2026).

A value given as a limit tells only on which side of the number the result lay.

The test system of the first assay is HSV-2 G strain. The assay can be described thus: HSV-2 Antiviral Assay (Vero cells, cell viability). In kind it is cell-based. To be noted: Human alphaherpesvirus 2, Vero, 120 h, Vero cells, 160 TCID50 HSV-2 G strain, 5 days, cell viability. The procedure:
Vero cells were cultured in Dulbecco's Modified Eagle Medium (DMVEM) supplemented with […] and 100 units/mL penicillin and streptomycin. The cells were passaged 2-3 times per week to maintain sub-confluent densities.
Vero cells were seeded into 96-well plates at a density of 1.0×10^4 cells per well and allowed to attach overnight. Following attachment, the media was replaced with 50 μL of infection medium (DMEM supplemented with 2% fetal bovine serum and 100 units/mL penicillin and streptomycin). A Tecan D300e digital dispenser was then used to add compounds to the culture using an 8-point 3-fold serial dilution format. The DMSO concentration was normalized to 0.5% for all treatments. Following compound addition, 50 μL of infection medium containing 160 TCID50 HSV-2 G strain was added to the cells and incubated at 37° C. for 5 days. After the incubation, 10 μL/well of WST-8 chromogenic reagent was added and the plates incubated at 37° C. for 3 hours. Following the incubation, cell viability was quantified by measuring the absorbance at 460 nm and 620 nm using a Tecan Infinite M1000 Pro plate reader.
Regarding `Cc1nc(N2CCCN(c3ccc(-c4cc(F)ccc4C#CC(C)(C)O)cc3)C2=O)sc1S(N)(=O)=O` [Compound 19, 2-(3-(5′-Fluoro-2′-(3-hydroxy-3-methylbut-1-yn-1-yl)-[1,1′-biphenyl]-4-yl)-2-oxotetrahydropyrimidin-1(2H)-yl)-4-methylthiazole-5-sulfonamide], the EC50 – broadly, the midpoint of the concentration-response curve – fell in the range of 1 to 5 µM. Still for that read-out and setting: the result for `Cc1nc(N2CCCN(c3ccc(-c4ccccc4/C=C/C#N)cc3)C2=O)sc1S(N)(=O)=O` [Compound 20] reads 0.1 to 1 µM; that for `Cc1nc(N2CCCN(c3ccc(-c4ccccc4/C=C\C#N)cc3)C2=O)sc1S(N)(=O)=O` [Compound 21], 0.1 to 1 µM. `Cc1nc(N2CCCN(c3ccc(-c4ccccc4C4(C#N)CC4)cc3)C2=O)sc1S(N)(=O)=O` [Compound 23]: the EC50 was in the range of 1 to 5 µM. Take `Cc1nc(N2CCCN(c3ccc(-c4cc(Cl)ccc4F)cc3)C2=O)sc1S(N)(=O)=O` [Compound 27]: the EC50 was below 0.1 µM. Same read-out and setting: for `Cc1nc(N2CCCN(c3ccc(-c4cccc(-c5nccs5)c4)cc3)C2=O)sc1S(N)(=O)=O` [Compound 30, 4-methyl-2-(2-oxo-3-(3′-(thiazol-2-yl)-[1,1′-biphenyl]-4-yl)tetrahydropyrimidin-1(2H)-yl)thiazole-5-sulfonamide] the value was below 0.1 µM; for `Cc1nc(N2CCCN(c3ccc(-c4cccc(-c5cncs5)c4)cc3)C2=O)sc1S(N)(=O)=O` [Compound 31], below 0.1 µM. `Cc1nc(N2CCCN(c3ccc(-c4cccc(-c5ccnn5C)c4)cc3)C2=O)sc1S(N)(=O)=O` [Compound 32] displayed an EC50 of 0.1 to 1 µM.

`Cc1nc(N2CCCN(c3ccc(-c4nccc(Cl)c4F)cc3)C2=O)sc1S(N)(=O)=O` [Compound 37] returned an EC50 of 0.1 to 1 µM. Take `Cc1nc(N2CCCN(c3ccc(-c4cc(Cl)c(F)cn4)cc3)C2=O)sc1S(N)(=O)=O` [Compound 38]: the EC50 lay in the range of 1 to 5 µM. On to `Cc1nc(N2CCCN(c3ccc(-c4scnc4C#N)cc3)C2=O)sc1S(N)(=O)=O` [Compound 47], for which the EC50 is 0.1 to 1 µM.

As for `Cc1nc(N2CCCN(c3ccc(-c4nc(C#N)cs4)cc3)C2=O)sc1S(N)(=O)=O` [Compound 48], the 50% effective concentration (EC50) was below 0.1 µM. Still for that read-out and setting: for `Cc1nc(N2CCCN(c3ccc(-c4cncs4)cc3)C2=O)sc1S(N)(=O)=O` [Compound 49] the value was 0.1 to 1 µM. In the case of `Cc1ncsc1-c1ccc(N2CCCN(c3nc(C)c(S(N)(=O)=O)s3)C2=O)cc1` [Compound 50], the EC50 lay in the range of 0.1 to 1 µM.

`Cc1nc(N2CCCN(c3ccc(-c4cccc5c4cnn5S(C)(=O)=O)cc3)C2=O)sc1S(N)(=O)=O` [Compound 57] yielded a concentration for a half-maximal effect (EC50) of 1 to 5 µM. `COc1ccc(-c2ccc(N3CCCN(c4nc(C)c(S(N)(=O)=O)s4)C3=O)cc2)c2cnn(C)c12` [Compound 58]: the EC50 is below 0.1 µM.

Consider `Cc1nc(N2CCCN(c3ccc(-c4cccn5cncc45)cc3)C2=O)sc1S(N)(=O)=O` [Compound 65], for which the EC50 was in the range of 0.1 to 1 µM.

Turning to `Cc1nc(N2CCCN(c3ccc(-c4cccc5nc(N)sc45)cc3)C2=O)sc1S(N)(=O)=O` [Compound 69], the half-maximal effective concentration (EC50) is below 0.1 µM. `Cc1nc(N2CCCN(c3ccc(-c4c(F)ccc5ncsc45)cc3)C2=O)sc1S(N)(=O)=O` [Compound 70]: the EC50 was below 0.1 µM. Take `Cc1nc2c(-c3ccc(N4CCCN(c5nc(C)c(S(N)(=O)=O)s5)C4=O)cc3)cccc2s1` [Compound 72]: the EC50 was below 0.1 µM. Still for that read-out and setting: the result for `Cc1nc(N2CCCN(c3ccc(-c4cccc5c4OCO5)cc3)C2=O)sc1S(N)(=O)=O` [Compound 81] reads 0.1 to 1 µM. Turning to `Cc1nc(N2CCCN(c3ccc(-c4nn(C)c5ccccc45)cc3)C2=O)sc1S(N)(=O)=O` [Compound 92], the EC50 was below 0.1 µM. Compound `Cc1nc(N2CCCN(c3ccc(-n4cnc5ccccc54)cc3)C2=O)sc1S(N)(=O)=O` [Compound 94] registered an EC50 of 1 to 5 µM. For the compound `Cc1nc(N2C(=O)N(c3ccc(-c4cc(F)ccc4F)cc3)CCC2C)sc1S(N)(=O)=O` (stereo not drawn) [Compound 107, 2-(3-(2′,5′-Difluoro-[1,1′-biphenyl]-4-yl)-6-methyl-2-oxotetrahydropyrimidin-1(2H)-yl)-4-methylthiazole-5-sulfonamide], the EC50 is below 0.1 µM. Same read-out and setting: for `Cc1nc(N2CC3(CC3)CN(c3ccc(-c4ncccc4F)cc3)C2=O)sc1S(N)(=O)=O` [Compound 112] the value was below 0.1 µM; for `Cc1csc(-c2ccc(N3CC4(CC4)CN(c4nc(C)c(S(N)(=O)=O)s4)C3=O)cc2)n1` [Compound 114], below 0.1 µM; for `Cc1nc(N2CCCN(c3ccc(-c4ccccc4F)cc3)C2=O)sc1S(C)(=N)=O` (stereo not drawn) [Compound 142], 0.1 to 1 µM. For `CN=S(C)(=O)c1sc(N2CCCN(c3ccc(-c4ccccc4F)cc3)C2=O)nc1C` (stereo not drawn) [Compound 145], the EC50 lay within 0.1 to 1 µM. As to `CN=S(C)(=O)c1sc(N2CCCN(c3ccc(-c4cc(F)ccc4F)cc3)C2=O)nc1C` (stereo not drawn) [Compound 151], the concentration for a half-maximal effect (EC50) was in the range of 0.1 to 1 µM. Same read-out and setting: for `Cc1nc(N2CCCCN(c3ccc(-c4cc(F)ccc4F)cc3)C2=O)sc1S(C)(=N)=O` (stereo not drawn) [Compound 154] the value was below 0.1 µM; for `Cc1cccc(-c2ccc(N3CCCN(c4nc(C)c(S(N)(=O)=O)s4)C3=O)cc2)n1` [Compound 184], below 0.1 µM; for `Cc1nc(N2CCCN(c3ccc(-c4cc(Cl)ccn4)cc3)C2=O)sc1S(N)(=O)=O` [Compound 185], below 0.1 µM.

`Cc1nc(N2CCCN(c3ccc(-c4ccc(F)c(Cl)c4)cc3)C2=O)sc1S(N)(=O)=O` [Compound 186] had an EC50 of 0.1 to 1 µM.

Compound `Cc1nc(N2CCCN(c3ccc(-c4ccc(F)cc4F)cc3)C2=O)sc1S(N)(=O)=O` [Compound 187] showed an EC50 of 0.1 to 1 µM. `Cc1nc(N2CCCN(c3ccc(-c4cc(F)c(F)c(F)c4)cc3)C2=O)sc1S(N)(=O)=O` [Compound 188] showed an EC50 of 0.1 to 1 µM. With `Cc1nc(N2CCCN(c3ccc(-c4ccc(F)cc4)cc3)C2=O)sc1S(N)(=O)=O` [Compound 189], the 50% effective concentration (EC50) lay within 0.1 to 1 µM.

`Cc1nc(N2CCCN(c3ccc(-c4ccc(F)c(F)c4)cc3)C2=O)sc1S(N)(=O)=O` [Compound 190] returned an EC50 of 0.1 to 1 µM.

`Cc1nc(N2CCCN(c3ccc(-c4cccc(Cl)c4)cc3)C2=O)sc1S(N)(=O)=O` [Compound 191] yielded an EC50 below 0.1 µM. The compound `Cc1nc(N2CCCN(c3ccc(-c4cc(F)cc(/C=C/C#N)c4)cc3)C2=O)sc1S(N)(=O)=O` [Compound 192] came in with a concentration for a half-maximal effect (EC50) below 0.1 µM. As to `Cc1cccc(-c2ccc(N3CCCN(c4nc(C)c(S(N)(=O)=O)s4)C3=O)cc2)c1C` [Compound 195], the concentration for a half-maximal effect (EC50) was below 0.1 µM. In the case of `Cc1nc(N2CCCN(c3ccc(-c4ccccc4C(F)(F)F)cc3)C2=O)sc1S(N)(=O)=O` [Compound 196], the EC50 was below 0.1 µM. For the compound `Cc1nc(N2CCCN(c3ccc(-c4ccccc4C4COC4)cc3)C2=O)sc1S(N)(=O)=O` [Compound 197], the EC50 lay in the range of 1 to 5 µM.

For `Cc1nc(N2CCCN(c3ccc(-c4cccc(C5(C#N)CC5)c4)cc3)C2=O)sc1S(N)(=O)=O` [Compound 198], the concentration for a half-maximal effect (EC50) was below 0.1 µM. Still for that read-out and setting: the result for `Cc1nc(N2CCCN(c3ccc(-c4cccc(C5CCC5)c4)cc3)C2=O)sc1S(N)(=O)=O` [Compound 199] reads 0.1 to 1 µM; that for `Cc1nc(N2CCCN(c3ccc(-c4ccccc4OC4CC4)cc3)C2=O)sc1S(N)(=O)=O` [Compound 200], 0.1 to 1 µM. As to `Cc1nc(N2CCCN(c3ccc(-c4cccc(S(C)(=O)=O)c4)cc3)C2=O)sc1S(N)(=O)=O` [Compound 201], the half-maximal effective concentration (EC50) lay in the range of 1 to 5 µM.

The compound `Cc1nc(N2CCCN(c3ccc(-c4cc(C#N)ccc4F)cc3)C2=O)sc1S(N)(=O)=O` [Compound 202] showed an EC50 below 0.1 µM.

On to `COc1ccc(F)cc1-c1ccc(N2CCCN(c3nc(C)c(S(N)(=O)=O)s3)C2=O)cc1` [Compound 203], for which the 50% effective concentration (EC50) is below 0.1 µM.

`Cc1nc(N2CCCN(c3ccc(-c4cc(C(C)(C)C)ccc4F)cc3)C2=O)sc1S(N)(=O)=O` [Compound 204]: the 50% effective concentration (EC50) lay within 1 to 5 µM. `Cc1nc(N2CCCN(c3ccc(-c4cc(C5CC5)ccc4F)cc3)C2=O)sc1S(N)(=O)=O` [Compound 205] showed an EC50 of 0.1 to 1 µM. Regarding `Cc1nc(N2CCCN(c3ccc(-c4cc(C(F)F)ccc4F)cc3)C2=O)sc1S(N)(=O)=O` [Compound 206], the 50% effective concentration (EC50) is below 0.1 µM. The compound `Cc1nc(N2CCCN(c3ccc(-c4cc(F)ccc4-c4cnn(C)c4)cc3)C2=O)sc1S(N)(=O)=O` [Compound 207] yielded an EC50 of 0.1 to 1 µM. The same measure, in the same setting: the result for `Cc1nc(N2CCCN(c3ccc(-c4cc(C5(C#N)CC5)ccc4F)cc3)C2=O)sc1S(N)(=O)=O` [Compound 208] reads below 0.1 µM; that for `Cc1nc(N2CCCN(c3ccc(-c4cc(Cl)cc(Cl)c4F)cc3)C2=O)sc1S(N)(=O)=O` [Compound 213], below 0.1 µM. `Cc1nc(N2CCCN(c3ccc(-c4cc(Cl)cc(F)c4F)cc3)C2=O)sc1S(N)(=O)=O` [Compound 214] came in with a concentration for a half-maximal effect (EC50) below 0.1 µM. `Cc1nc(N2CCCN(c3ccc(-c4cc(F)cc(F)c4O)cc3)C2=O)sc1S(N)(=O)=O` [Compound 215] returned an EC50 below 0.1 µM. In turn, `Cc1nc(N2CCCN(c3ccc(-c4cc(F)cc(C(F)F)c4F)cc3)C2=O)sc1S(N)(=O)=O` [Compound 217] had an EC50 below 0.1 µM. The compound `COc1cc(Cl)c(F)c(-c2ccc(N3CCCN(c4nc(C)c(S(N)(=O)=O)s4)C3=O)cc2)c1` [Compound 218] returned a half-maximal effective concentration (EC50) below 0.1 µM. `Cc1nc(N2CCCN(c3ccc(-c4cc(F)ccc4SC(F)(F)F)cc3)C2=O)sc1S(N)(=O)=O` [Compound 219]: the 50% effective concentration (EC50) was in the range of 0.1 to 1 µM.

The assay is the same for the next values; noted with them: Vero cells, 160 TCID50 HSV-2 G strain, 5 days, cell viability.
As to `Cc1nc(N2CCCN(c3ccc(-c4cccc5ccnn45)cc3)C2=O)sc1S(N)(=O)=O` [Compound 64], the concentration giving a half-maximal response (EC50) was 0.1 to 1 µM.
